Data from patent publication US12479816B2, “20-HETE formation inhibitors” (UNIVERSITY OF PITTSBURGH—OF THE COMMONWEALTH SYSTEM OF …, priority 2019, dated 2025).
Like-named read-outs stand apart in the source and are kept apart here.

Experiments:
[1] = system: 20-HETE formation (CYP4) in HLM; assay: IC50 determination, 20-HETE formation in HLM; format: biochemical, human; settings: HLM 300 μg/ml, AA 100 μM, 12 concentrations
Experimental: Microsomal incubations contained HLM, RLM (300 μg/ml), AA (100 μM), NADPH (1 mM) and test compounds at 12 concentrations (0.1 nM-50 μM) in a 1 ml total volume in microsomal incubation buffer (0.12 M potassium phosphate buffer containing 5 mM magnesium chloride). Reaction was started by adding NADPH to the incubates and was carried out at 37° C. in a shaking water bath for 20 min. Reaction was stopped by placing tubes on ice, followed by adding 12.5 μl 20-HETE-d6 as internal standard to each sample. Microsomal incubations were extracted with 3 ml ethyl ether twice, dried down under nitrogen gas and reconstituted in 125 μl 80:20 methanol:deionized H2O for analysis. 20-HETE formation was quantified using the validated UPLC-MS/MS assay described above and normalized by vehicle group. HET0016 (250 nM) was used as positive control. Incubates without NADPH group served as the negative control. IC50 was determined by fitting the dose-response curve using Graphpad Prism nonlinear regression.

rCYP4F2 = biological target: T1, rCYP4F2 (Homo sapiens, UniProt P78329); assay: Inhibition of 20-HETE formation at 250 or 500 nM in rCYP4F2 incubations; format: biochemical; settings: 500 nM compound; rCYP4F2 25 pmol/mL; read-out: rCYP4F2 % inh. @ 500 nM
T1 sequence (P78329 5-520): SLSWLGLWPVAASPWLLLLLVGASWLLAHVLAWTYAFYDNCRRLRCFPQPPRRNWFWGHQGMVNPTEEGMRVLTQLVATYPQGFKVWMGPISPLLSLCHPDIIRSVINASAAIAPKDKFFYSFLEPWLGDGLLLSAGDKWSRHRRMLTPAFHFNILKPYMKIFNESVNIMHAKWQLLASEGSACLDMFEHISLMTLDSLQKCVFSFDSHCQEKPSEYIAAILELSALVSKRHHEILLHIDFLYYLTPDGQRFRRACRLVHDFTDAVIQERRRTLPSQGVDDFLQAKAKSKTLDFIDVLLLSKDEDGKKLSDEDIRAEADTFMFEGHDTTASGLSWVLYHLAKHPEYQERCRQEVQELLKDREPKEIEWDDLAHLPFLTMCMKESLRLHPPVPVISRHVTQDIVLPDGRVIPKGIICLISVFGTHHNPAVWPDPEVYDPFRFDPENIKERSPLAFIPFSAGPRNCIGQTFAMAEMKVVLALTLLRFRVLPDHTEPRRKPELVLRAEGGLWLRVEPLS
How it was run: (§1)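 Microsomes (300 μg/ml) or rCYP4F2 (25 pmol/mL) were incubated with 100 μM arachidonic acid, 1 mM NADPH and test compound in 0.12 M potassium phosphate with 5 mM MgCl2 for 20 min at 37° C. 20-HETE was quantified by UPLC-MS/MS with 20-HETE-d6 internal standard and expressed as percent of vehicle (n=3).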

[2] = system: 20-HETE formation (CYP4) in HLM; assay: Inhibition of 20-HETE formation at 250 or 500 nM in HLM microsomal incubations; format: biochemical, human; settings: 500 nM compound; HLM 300 μg/ml, AA 100 μM, 20 min
How it was run: as §1

[3] = system: 20-HETE formation (CYP4) in RLM; assay: Inhibition of 20-HETE formation at 250 or 500 nM in RLM microsomal incubations; format: biochemical, rat; settings: 500 nM compound; RLM 300 μg/ml
How it was run: as §1

[4] = HLM stability determination; format: in vitro ADME, human; settings: HLM 500 μg/ml, 1 μM compound, NADPH, relative to 0 min
Experimental: HLM stability determinations shown in Table 3 were obtained as follows. Microsomal incubates contained HLM (500 μg/ml), test compounds (1 μM) and NADPH (1.3 mM) in a 1 ml total volume of microsomal incubation buffer (0.12 M potassium phosphate buffer containing 5 mM magnesium chloride). Reaction was started by adding NADPH to the incubates and was carried out at 37° C. in a shaking water bath for 60 min. At 0, 15, 30, 45, 60 min, a 50 μl aliquot of incubates was taken out and reaction was stopped by adding aliquot into 200 μl ice-cold acetonitrile. After centrifugation at 14000×g for 5 min, 200 μl supernatant was taken out for UPLC-MS/MS analysis as described above. Values at 0 min were used as corresponding control for test compounds. Varapamil, metoprolol, and warfarin, categorized as fast, moderate and slow metabolism, were used as positive control. Incubates without NADPH group served as negative control.

[5] = Turbidometric solubility determination; format: physicochemical; settings: PBS with 1% DMSO, aqueous buffer, kinetic from dmso stock, room temperature
How it was run: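 Precipitation was detected as a significant rise in absorbance at 620 nm over background, and this point set the maximum solubility. Compound was tested in PBS with 1% DMSO at final concentrations from 0 to 600 μM, in triplicate, after 2 h of shaking at room temperature.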

[6] = system: 20-HETE formation (CYP4) in RKM; assay: Inhibition of 20-HETE formation at 250 or 500 nM in RKM microsomal incubations; format: biochemical, rat; settings: 500 nM compound; RKM 300 μg/ml
How it was run: as §1

MDR1 (P-gp) = assay: BBB penetration potential, MDR1-MDCK permeability; format: in vitro ADME; settings: dog; for Papp A→B at 120 min, 5 μM: apical to basolateral, pH 7.4, read-out: BBB penetration potential MDCK A-B 10−6 cm/s; for Papp B→A at 120 min, 5 μM: basolateral to apical, pH 7.4, read-out: BBB penetration potential MDCK B-A 10−6 cm/s
Experimental: BBB penetration potential assessment data in Table 1 was obtained as follows. MDR1-MDCK cell monolayers were grown to confluence on collagen-coated, microporous membranes in 12-well assay plates. Atenolol, propranolol and digoxin were used as control to assess plate quality. The permeability assay buffer was Hanks' balanced salt solution containing 10 mM HEPES and 15 mM glucose at a pH of 7.4. The buffer in the receiver chamber also contained 1% bovine serum albumin. The dosing solution concentration was 5 μM of test article in the assay buffer. Cell monolayers were dosed on the apical side (A-to-B) or basolateral side (B-to-A) and incubated at 37° C. with 5% CO2 in a humidified incubator. Samples were taken from the donor and receiver chambers at 120 minutes. Each determination was performed in duplicate the flux of lucifer yellow was also measured post-experimentally for each monolayer to ensure no damage was inflicted to the cell monolayers during the flux period. All samples were assayed by LC-MS/MS using electrospray ionization using a PE SCIEX API 4000 spectrometer and total run time of 1 min. Analytical method/conditions were: Liquid Chromatography Column: Waters ACQUITY UPLC BEH Phenyl 30×2.1 mm, 1.7 m; M.P. Buffer: 25 mM ammonium formate buffer, pH 3.5; Aqueous Reservoir (A): 90% water, 10% buffer; Organic Reservoir (B): 90% acetonitrile, 10% buffer; Flow Rate: 0.7 mL/minute; gradient program: 99% A (t=0 min), 1% A (t=0.65 min), 1% A (t=0.75 min), 99% A (t=0.8 min), 99% A (t=1 min); 5 μL injection volume
The apparent permeability (Papp) and percent recovery were calculated as follows: Papp=(dCr/dt)×Vr/(A×CA) (1) Percent Recovery=100×((Vr×Cr^final)+(Vd×Cd^final))/(Vd×CN) (2)
wherein: • dCr/dt is the slope of the cumulative concentration in the receiver compartment versus time in μMs^−1; • Vr is the volume of the receiver compartment in cm^3; • Vd is the volume of the donor compartment in cm^3; • A is the area of the insert (1.13 cm^2 for 12-well); • CA is the average of the nominal dosing concentration and the measured 120 minute donor concentration in μM; • CN is the nominal concentration of the dosing solution in μM; • Cr^final is the cumulative receiver concentration in μM at the end of the incubation period; • Cd^final is the concentration of the donor in μM at the end of the incubation period. Efflux ratio (ER) is defined as Papp (B-to-A)/Papp (A-to-B) Interpretation Brain Penetration Potential Classification: • Papp (A-to-B)≥3.0 and ER<3.0: High • Papp (A-to-B)≥3.0 and 10>ER≥3.0: Moderate • Papp (A-to-B)≥3.0 and ER≥10, or Papp (A-to-B)<3.0 Low

| IC50 [1] [µM] | inhibition at 0.5 µM (rCYP4F2) [%] | HLM % inh. @ 500 nM [2] [%] | RLM % inh. @ 500 nM [3] [%] | Stability HLM % @ 30 min [4] [%] | solubility at 2 h ([5]; OD620, read-out: Max Solub) [µM] | solubility at 2 h ([5]; read-out: Solubility_ug/mL) [µg/mL] | RKM % inh. @ 500 nM [6] [%] | Papp A→B at 120 min, 5 μM (MDR1 (P-gp)) [×10⁻⁶ cm/s] | Papp B→A at 120 min, 5 μM (MDR1 (P-gp)) [×10⁻⁶ cm/s] | Compound |
| --- | --- | --- | --- | --- | --- | --- | --- | --- | --- | --- |
| 0.22 | 60 | 53.00 | 0.00 | 97 |  |  |  |  |  | c1ccc(OC2CCN(c3cn[nH]c3)CC2)cc1 [Compound 14, 4-Phenoxy-1-(1H-pyrazol-4-yl)piperidine] |
| 0.11 | 70.8 | 67.40 | 0.00 | 61 | 166 | 40.1 |  |  |  | Cc1ccc(C2CCN(c3ccn[nH]3)CC2)cc1 [Compound 23, 1-(1H-Pyrazol-5-yl)-4-(p-tolyl)piperidine] |
| 0.08 | 79.9 | 73.80 | 16.30 | 92 | 85.4 | 20.6 |  |  |  | Cc1ccc(C2CCN(c3cn[nH]c3)CC2)cc1 [Compound 24, 1-(1H-Pyrazol-4-yl)-4-(p-tolyl)piperidine] |
| 0.28 | 67.8 | 56.40 | 21.30 | 100 | 235 | 63.9 |  |  |  | COCc1ccc(C2CCN(c3ccn[nH]3)CC2)cc1 [Compound 25, 4-(4-(Methoxymethyl)phenyl)-1-(1H-pyrazol-5-yl)piperidine] |
| 0.2 | 81.7 | 71.70 | 27.80 | 100 | 366 | 99.4 |  |  |  | COCc1ccc(C2CCN(c3cn[nH]c3)CC2)cc1 [Compound 26, 4-(4-(Methoxymethyl)phenyl)-1-(1H-pyrazol-4-yl)piperidine] |
| 0.1 | 75.9 | 65.80 | 7.80 | 82 | 95.5 | 24.8 |  |  |  | c1ccc(SC2CCN(c3cn[nH]c3)CC2)cc1 [Compound 40, 4-(Phenylthio)-1-(1H-pyrazol-4-yl)piperidine] |
| 0.08 | 88 | 82.00 | 63.00 | 100 |  |  | 0.00 |  |  | COc1ccc(C2CCN(c3cn[nH]c3)CC2)c(F)c1 [Compound 47, 4-(2-Fluoro-4-methoxyphenyl)-1-(1H-pyrazol-4-yl)piperidine] |
| 0.08 | 74.8 | 84.10 | 13.40 | 100 | 244 | 78 |  |  |  | CCS(=O)(=O)c1ccc(C2CCN(c3cn[nH]c3)CC2)cc1 [Compound 52, 4-(4-(Ethylsulfonyl)phenyl)-1-(1H-pyrazol-4-yl)piperidine] |
| 0.11 | 70.6 | 67.40 | 0.00 | 97 | 394 | 126 |  |  |  | CCS(=O)(=O)c1ccc(C2CCN(c3ccn[nH]3)CC2)cc1 [Compound 58, 4-(4-(Ethylsulfonyl)phenyl)-1-(1H-pyrazol-5-yl)piperidine] |
| 0.19 | 73.7 | 63.30 | 64.40 | 98 | > 600 | 155 |  |  |  | COc1cncc(C2CCN(c3cn[nH]c3)CC2)c1 [Compound 59, 3-(1-(1H-Pyrazol-4-yl)piperidin-4-yl)-5-methoxypyridine] |
|  | 38.4 | 3.70 | 0.00 | 100 |  |  |  |  |  | COc1cncc(C2CCN(c3ccn[nH]3)CC2)c1 [Compound 60, 3-(1-(1H-Pyrazol-5-yl)piperidin-4-yl)-5-methoxypyridine] |
|  | 86 | 90.30 | 62.70 |  | > 600 |  |  | 10.8 | 77.5 | O=C1CCCN1Cc1ccc(C2CCN(c3cn[nH]c3)CC2)cc1F [Compound 109, 1-(4-(1-(1H-Pyrazol-4-yl)piperidin-4-yl)-2-fluorobenzyl)pyrrolidin-2-one] |
|  | 89.3 | 86.40 | 59.60 |  | 71 |  |  | 77.4 | 70.3 | Cc1ccc(CC2CCN(c3cn[nH]c3)CC2)cc1 [Compound 116, 4-(4-Methylbenzyl)-1-(1H-pyrazol-4-yl)piperidine] |
